In PMC7026418, “The kinase polypharmacology landscape of clinical PARP inhibitors” (Scientific Reports, 2020):
Like-named read-outs stand apart in the source and are kept apart here. Blank lines part the entries; values can stand above or below the compound they belong to.

Columns and labels:
Assay in all cases: biochemical
Design in all cases: DiscoveRx KINOMEscan active site-directed competition binding; percent of control kinase bound to immobilised ligand
DLK = target: T1, DLK (Homo sapiens, UniProt Q12852)
T1 construct: gene MAP3K12
T1 sequence (Q12852 1-859): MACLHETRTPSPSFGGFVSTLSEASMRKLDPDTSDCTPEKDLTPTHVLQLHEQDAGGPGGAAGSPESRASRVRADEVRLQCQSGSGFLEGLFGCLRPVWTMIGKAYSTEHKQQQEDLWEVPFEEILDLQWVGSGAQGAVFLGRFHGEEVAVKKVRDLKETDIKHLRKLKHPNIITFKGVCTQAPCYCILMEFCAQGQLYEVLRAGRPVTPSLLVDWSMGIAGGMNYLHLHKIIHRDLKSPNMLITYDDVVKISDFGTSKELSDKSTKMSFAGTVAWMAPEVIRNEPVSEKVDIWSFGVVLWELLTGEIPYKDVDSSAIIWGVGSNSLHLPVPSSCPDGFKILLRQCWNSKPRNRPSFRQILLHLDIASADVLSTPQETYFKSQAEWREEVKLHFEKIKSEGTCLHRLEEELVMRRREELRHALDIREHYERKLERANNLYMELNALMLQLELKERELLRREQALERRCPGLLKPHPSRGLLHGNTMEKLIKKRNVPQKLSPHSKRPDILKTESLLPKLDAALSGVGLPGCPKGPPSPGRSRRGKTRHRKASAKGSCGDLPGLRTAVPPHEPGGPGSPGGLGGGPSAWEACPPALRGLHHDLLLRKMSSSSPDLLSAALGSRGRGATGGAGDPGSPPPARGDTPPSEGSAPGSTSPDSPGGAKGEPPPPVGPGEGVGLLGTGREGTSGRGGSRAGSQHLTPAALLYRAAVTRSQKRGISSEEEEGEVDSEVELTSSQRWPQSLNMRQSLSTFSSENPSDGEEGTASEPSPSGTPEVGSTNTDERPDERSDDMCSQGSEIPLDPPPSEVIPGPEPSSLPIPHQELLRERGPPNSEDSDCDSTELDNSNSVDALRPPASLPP

SNARK = target: T2, SNARK (Homo sapiens, UniProt Q9H093)
T2 construct: gene NUAK2
T2 sequence (Q9H093 1-628): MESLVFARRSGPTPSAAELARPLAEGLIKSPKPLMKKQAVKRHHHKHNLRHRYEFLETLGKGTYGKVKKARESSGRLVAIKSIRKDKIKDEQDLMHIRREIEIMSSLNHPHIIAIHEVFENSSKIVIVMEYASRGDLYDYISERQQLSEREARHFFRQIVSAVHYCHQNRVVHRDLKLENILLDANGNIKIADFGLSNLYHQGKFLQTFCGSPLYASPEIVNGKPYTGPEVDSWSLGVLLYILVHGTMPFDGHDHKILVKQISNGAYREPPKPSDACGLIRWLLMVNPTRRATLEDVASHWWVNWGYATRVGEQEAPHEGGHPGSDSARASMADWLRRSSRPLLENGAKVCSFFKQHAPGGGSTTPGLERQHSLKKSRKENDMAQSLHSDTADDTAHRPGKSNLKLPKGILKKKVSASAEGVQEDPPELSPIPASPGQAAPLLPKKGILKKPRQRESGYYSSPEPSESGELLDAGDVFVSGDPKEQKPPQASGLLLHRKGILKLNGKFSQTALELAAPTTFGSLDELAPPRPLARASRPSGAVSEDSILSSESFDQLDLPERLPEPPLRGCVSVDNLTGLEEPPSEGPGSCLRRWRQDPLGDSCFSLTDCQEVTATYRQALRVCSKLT

ERK8 = target: T3, ERK8 (Homo sapiens, UniProt Q8TD08)
T3 construct: gene MAPK15
T3 sequence (Q8TD08 1-544): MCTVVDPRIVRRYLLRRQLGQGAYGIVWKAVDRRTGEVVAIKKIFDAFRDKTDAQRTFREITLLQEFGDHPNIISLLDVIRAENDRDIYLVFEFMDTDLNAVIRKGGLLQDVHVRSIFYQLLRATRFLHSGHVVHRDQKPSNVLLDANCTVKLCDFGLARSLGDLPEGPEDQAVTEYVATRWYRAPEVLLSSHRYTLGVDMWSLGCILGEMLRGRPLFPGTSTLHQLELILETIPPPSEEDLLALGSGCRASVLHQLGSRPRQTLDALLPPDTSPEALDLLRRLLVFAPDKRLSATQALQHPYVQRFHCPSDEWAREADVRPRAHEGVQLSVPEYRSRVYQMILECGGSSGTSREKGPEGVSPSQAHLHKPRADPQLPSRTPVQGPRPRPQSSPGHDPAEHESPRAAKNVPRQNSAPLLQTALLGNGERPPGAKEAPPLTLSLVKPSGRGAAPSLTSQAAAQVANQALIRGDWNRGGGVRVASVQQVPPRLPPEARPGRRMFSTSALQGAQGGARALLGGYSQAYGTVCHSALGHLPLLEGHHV

AKT1 = AKT1 (Homo sapiens, UniProt P31749)
PHKG1 = PHKG1 (Homo sapiens, UniProt Q16816)
p38-beta = target: T4, p38-beta (Homo sapiens, UniProt Q15759)
T4 construct: gene MAPK11

RET(M918T) = RET(M918T) (Homo sapiens, UniProt P07949, M918T)
[1] = read-out: Olaparib / %Ctrl @ 10000nM
[2] = read-out: Talazoparib (BMN 673) / %Ctrl @ 10000nM
[3] = read-out: Rucaparib / %Ctrl @ 10000nM, binding competition, % of control
[4] = read-out: Niraparib (MK-4827) / %Ctrl @ 10000nM

AKT1, sequence (P31749 whole entry): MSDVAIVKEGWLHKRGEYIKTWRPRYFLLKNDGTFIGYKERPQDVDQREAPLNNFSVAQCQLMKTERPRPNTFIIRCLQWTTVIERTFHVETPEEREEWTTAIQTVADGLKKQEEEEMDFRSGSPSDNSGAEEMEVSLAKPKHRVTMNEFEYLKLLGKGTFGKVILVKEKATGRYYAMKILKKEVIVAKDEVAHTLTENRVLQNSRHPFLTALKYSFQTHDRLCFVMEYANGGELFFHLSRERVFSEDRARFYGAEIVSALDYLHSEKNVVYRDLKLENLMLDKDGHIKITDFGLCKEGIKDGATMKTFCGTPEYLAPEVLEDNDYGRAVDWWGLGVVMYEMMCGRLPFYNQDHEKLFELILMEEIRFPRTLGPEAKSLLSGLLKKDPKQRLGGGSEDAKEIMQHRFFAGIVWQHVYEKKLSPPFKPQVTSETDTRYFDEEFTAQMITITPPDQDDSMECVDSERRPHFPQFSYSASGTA
RET(M918T), sequence (P07949 whole entry M918T): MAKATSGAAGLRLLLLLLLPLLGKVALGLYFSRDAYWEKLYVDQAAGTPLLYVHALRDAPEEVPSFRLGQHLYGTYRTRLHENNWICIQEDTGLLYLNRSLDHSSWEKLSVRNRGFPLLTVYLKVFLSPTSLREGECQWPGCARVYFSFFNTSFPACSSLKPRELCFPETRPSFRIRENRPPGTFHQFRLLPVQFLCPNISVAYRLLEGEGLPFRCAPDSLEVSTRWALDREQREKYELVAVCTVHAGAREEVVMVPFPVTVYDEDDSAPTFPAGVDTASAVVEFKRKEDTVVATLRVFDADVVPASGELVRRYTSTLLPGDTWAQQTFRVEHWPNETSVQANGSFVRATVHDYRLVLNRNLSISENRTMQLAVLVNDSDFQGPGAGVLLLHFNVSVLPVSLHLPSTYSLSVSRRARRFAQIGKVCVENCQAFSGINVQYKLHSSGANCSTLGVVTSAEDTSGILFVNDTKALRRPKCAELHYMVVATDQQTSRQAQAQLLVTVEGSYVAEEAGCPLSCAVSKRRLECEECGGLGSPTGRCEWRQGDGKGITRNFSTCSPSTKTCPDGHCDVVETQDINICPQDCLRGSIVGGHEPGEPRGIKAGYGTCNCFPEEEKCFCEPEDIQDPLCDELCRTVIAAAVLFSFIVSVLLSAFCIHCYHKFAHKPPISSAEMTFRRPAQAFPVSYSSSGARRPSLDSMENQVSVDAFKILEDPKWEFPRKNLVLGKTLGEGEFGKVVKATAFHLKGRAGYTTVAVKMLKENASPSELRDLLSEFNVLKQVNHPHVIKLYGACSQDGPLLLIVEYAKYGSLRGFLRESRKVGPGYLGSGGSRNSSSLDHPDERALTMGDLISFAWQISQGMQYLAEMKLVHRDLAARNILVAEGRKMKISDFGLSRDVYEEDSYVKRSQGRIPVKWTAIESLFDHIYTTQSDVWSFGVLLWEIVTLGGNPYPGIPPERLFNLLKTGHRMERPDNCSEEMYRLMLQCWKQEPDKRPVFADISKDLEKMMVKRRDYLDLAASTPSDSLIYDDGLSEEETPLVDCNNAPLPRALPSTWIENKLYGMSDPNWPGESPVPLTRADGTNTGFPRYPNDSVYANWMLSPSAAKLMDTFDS
T4 sequence (Q15759 whole entry): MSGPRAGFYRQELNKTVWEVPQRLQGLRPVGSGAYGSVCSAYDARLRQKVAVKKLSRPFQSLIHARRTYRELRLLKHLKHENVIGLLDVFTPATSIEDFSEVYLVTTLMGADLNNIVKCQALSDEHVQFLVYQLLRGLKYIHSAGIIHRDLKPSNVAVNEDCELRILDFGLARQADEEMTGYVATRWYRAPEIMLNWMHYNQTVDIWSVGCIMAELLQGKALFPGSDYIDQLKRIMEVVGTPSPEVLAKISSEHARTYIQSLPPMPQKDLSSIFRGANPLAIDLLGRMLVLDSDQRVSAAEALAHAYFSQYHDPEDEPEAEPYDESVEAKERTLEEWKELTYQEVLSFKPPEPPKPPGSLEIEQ
PHKG1, sequence (Q16816 whole entry): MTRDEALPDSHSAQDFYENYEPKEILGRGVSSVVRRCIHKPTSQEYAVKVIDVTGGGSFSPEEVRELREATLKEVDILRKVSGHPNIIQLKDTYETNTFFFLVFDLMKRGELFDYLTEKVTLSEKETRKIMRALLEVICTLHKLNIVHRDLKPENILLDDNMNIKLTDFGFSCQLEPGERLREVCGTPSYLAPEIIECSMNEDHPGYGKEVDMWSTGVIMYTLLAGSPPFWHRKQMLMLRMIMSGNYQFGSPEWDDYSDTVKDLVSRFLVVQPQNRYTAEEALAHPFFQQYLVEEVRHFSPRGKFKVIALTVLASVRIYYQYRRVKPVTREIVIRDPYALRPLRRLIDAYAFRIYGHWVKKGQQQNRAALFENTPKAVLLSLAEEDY

percent of control binding at 10 µM (DLK; [1]): 96%
percent of control binding at 10 µM (SNARK; [1]): 72%
percent of control binding at 10 µM (AKT1; [1]): 100%
percent of control binding at 10 µM (PHKG1; [1]): 100%
percent of control binding at 10 µM (p38-beta; [1]): 90%
percent of control binding at 10 µM (RET(M918T); [1]): 100%
Structure (SMILES): O=C(c1cc(Cc2n[nH]c(=O)c3ccccc23)ccc1F)N1CCN(C(=O)C2CC2)CC1 [Olaparib]
percent of control binding at 10 µM (ERK8; [1]): 97%

percent of control binding at 10 µM (DLK; [2]): 100%
percent of control binding at 10 µM (SNARK; [2]): 100%
percent of control binding at 10 µM (AKT1; [2]): 92%
percent of control binding at 10 µM (PHKG1; [2]): 90%
percent of control binding at 10 µM (p38-beta; [2]): 86%
percent of control binding at 10 µM (RET(M918T); [2]): 96%
Structure (SMILES): Cn1ncnc1[C@H]1c2n[nH]c(=O)c3cc(F)cc(c23)N[C@@H]1c1ccc(F)cc1 [Talazoparib]
percent of control binding at 10 µM (ERK8; [2]): 88%

percent of control binding at 10 µM (DLK; [3]): 91%
percent of control binding at 10 µM (SNARK; [3]): 50%
percent of control binding at 10 µM (AKT1; [3]): 91%
percent of control binding at 10 µM (PHKG1; [3]): 87%
percent of control binding at 10 µM (p38-beta; [3]): 93%
percent of control binding at 10 µM (RET(M918T); [3]): 97%
Structure (SMILES): CNCc1ccc(-c2[nH]c3cc(F)cc4c3c2CCNC4=O)cc1 [Rucaparib]
percent of control binding at 10 µM (ERK8; [3]): 86%

Structure (SMILES): NC(=O)c1cccc2cn(-c3ccc([C@@H]4CCCNC4)cc3)nc12 [Niraparib]
percent of control binding at 10 µM (DLK; [4]): 100%
percent of control binding at 10 µM (SNARK; [4]): 98%
percent of control binding at 10 µM (ERK8; [4]): 61%
percent of control binding at 10 µM (AKT1; [4]): 99%
percent of control binding at 10 µM (PHKG1; [4]): 100%
percent of control binding at 10 µM (p38-beta; [4]): 99%
percent of control binding at 10 µM (RET(M918T); [4]): 95%
